Here are results for 27 compounds from patent US8367658B2, “Pyrazin-2-yl-pyridin-2-yl-amine and pyrazin-2-yl-pyrimidin-4-yl-amine compounds and their use” (Cancer Research Technology Limited, priority 2007, dated 2013).

Values joined by “and” are separate entries in the source; they are usually repeats but may differ in a detail not shown here. Equal entries are not always repeated. A value given as a limit tells only on which side of the number the result lay.

This test deals with T1, CHK1 (Homo sapiens, UniProt O14757).
T1 sequence (O14757 1-476): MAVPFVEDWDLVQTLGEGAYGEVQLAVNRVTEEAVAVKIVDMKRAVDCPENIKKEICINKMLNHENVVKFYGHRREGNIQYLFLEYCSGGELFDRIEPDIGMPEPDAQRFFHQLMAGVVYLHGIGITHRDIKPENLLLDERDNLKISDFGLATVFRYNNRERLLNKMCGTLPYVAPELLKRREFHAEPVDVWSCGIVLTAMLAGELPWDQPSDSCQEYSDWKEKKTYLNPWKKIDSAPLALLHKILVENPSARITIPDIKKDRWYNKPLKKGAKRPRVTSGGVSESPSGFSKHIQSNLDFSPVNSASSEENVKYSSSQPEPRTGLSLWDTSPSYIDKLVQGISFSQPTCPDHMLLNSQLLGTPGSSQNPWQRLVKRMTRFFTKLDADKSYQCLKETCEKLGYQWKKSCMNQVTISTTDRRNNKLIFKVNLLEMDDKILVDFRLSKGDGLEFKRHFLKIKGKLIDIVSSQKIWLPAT
As to the kind of experiment: CHK1 kinase function inhibition assay (DELFIA, phosphorylation of a CDC25C peptide). The test is classed as biochemical. Particulars: CHK1 1 nM, ATP 30 μM, 30 minutes at room temperature. Here is the method: Measurement of Inhibition of CHK1 Kinase Function
CHK1 kinase function was measured in a DELFIA® assay in order to monitor phosphorylation of a CDC25C peptide using a specific phospho antibody.
The reaction mixture was incubated for 30 minutes at room temperature and then stopped by the addition of buffer (125 μL) containing 40 mM EDTA, 0.05% Tween 20, 0.1% BSA in TBS (10× concentrate, Sigma). An aliquot (100 μL) of the stopped reaction mixture was transferred to a black neutravidin-coated plate (Perbio) and incubated for 1 hour on a shaker (Titertek, Flow Laboratories) at room temperature. […] The plates were washed a further four times with wash buffer before the addition of enhancement solution (100 μL/well, PerkinElmer Life Sciences).
The term IC50 denotes the concentration that inhibits the measured activity by half. Read a low IC50 as greater potency in that assay. For the compound `COC(=O)c1cnc(Nc2cnc(C#N)cn2)cc1NCC1(F)CCNCC1` [Compound Y-083, Methyl 6-(5-Cyanopyrazin-2-ylamino)-4-((4-fluoropiperidin-4-yl)methylamino)nicotinate], the IC50 is no more than 100 nM.
The value for `COCCOc1cccc(-c2cnc(Nc3cnc(C#N)cn3)cc2NC2CCN(C)CC2)c1` [Compound Y-118, 5-(5-(3-(2-methoxyethoxy)phenyl)-4-(1-methylpiperidin-4-ylamino)pyridin-2-ylamino)pyrazine-2-carbonitrile] was no more than 100 nM; that for `COc1cccc(-c2cnc(Nc3cnc(C#N)cn3)cc2NC2CCN(C)CC2)c1` [Compound Y-116, 5-(5-(3-Methoxyphenyl)-4-(1-methylpiperidin-4-ylamino)pyridin-2-ylamino)pyrazine-2-carbonitrile] was no more than 100 nM; that for `N#Cc1cnc(Nc2cc(NCC3CCCNC3)c(N3CC[C@H](O)C3)cn2)cn1` (stereo partly drawn) [Compound Y-060, 5-(5-((S)-3-Hydroxypyrrolidin-1-yl)-4-(piperidin-3-ylmethylamino)pyridin-2-ylamino)pyrazine-2-carbonitrile] was no more than 100 nM.
The value for `N#Cc1cnc(Nc2cc(NCC3CCNCC3)c(NC(=O)CCN3CCCCC3)cn2)cn1` [Compound Y-011, N-(6-(5-Cyanopyrazin-2-ylamino)-4-(piperidin-4-ylmethylamino)pyridin-3-yl)-3-(piperidin-1-yl)propanamide] was 1000 to 10000 nM.
In the case of `CN(C)CC(=O)Nc1cnc(Nc2cnc(C#N)cn2)cc1NC1CCNCC1` [Compound Y-016, N-(6-(5-Cyanopyrazin-2-ylamino)-4-(piperidin-4-ylamino)pyridin-3-yl)-2-(dimethylamino)acetamide] it was ≤ 1000 nM and 100 to 1000 nM; in that of `CCCN1CCC(Nc2cc(Nc3cnc(C#N)cn3)ncc2C(=O)OC)CC1` [Compound Y-077, Methyl 6-(5-cyanopyrazin-2-ylamino)-4-(1-propylpiperidin-4-ylamino)nicotinate], no more than 100 nM; in that of `COc1ccc(CCC(=O)Nc2cnc(Nc3cnc(C#N)cn3)cc2NCC2CCNCC2)cc1` [Compound Y-012, N-(6-(5-Cyanopyrazin-2-ylamino)-4-(piperidin-4-ylmethylamino)pyridin-3-yl)-3-(4-methoxyphenyl)propanamide], 1000 to 10000 nM.
Compound `COCc1ccc(-c2cnc(Nc3cnc(C#N)cn3)cc2NC[C@H]2CNCCO2)cc1` [Compound Y-156, (R)-5-(5-(4-(Methoxymethyl)phenyl)-4-(morpholin-2-ylmethylamino)pyridin-2-ylamino)pyrazine-2-carbonitrile] showed an IC50 of no more than 100 nM.
In the case of `N#Cc1cnc(Nc2cc(N[C@H]3CCCNC3)ncn2)cn1` [Compound Z-013, (S)-5-(6-(Piperidin-3-ylamino)pyrimidin-4-ylamino)pyrazine-2-carbonitrile] it was 1000 to 10000 nM; in that of `COc1cccc(NC(=O)c2cnc(Nc3cnc(C#N)cn3)cc2NCC2CCNCC2)c1` [Compound Y-096, 6-(5-Cyanopyrazin-2-ylamino)-N-(3-methoxyphenyl)-4-(piperidin-4-ylmethylamino)nicotinamide], no more than 100 nM.
In the case of `N#Cc1cnc(Nc2cc(NCC3CNCCO3)c(C(=O)Nc3ccccc3)cn2)cn1` (stereo not drawn) [Compound Y-102, 6-(5-Cyanopyrazin-2-ylamino)-4-(morpholin-2-ylmethylamino)-N-phenylnicotinamide] it was no more than 100 nM; in that of `N#Cc1cnc(Nc2cc(N3CCNCC3)ncn2)cn1` [Compound Z-018, 5-(6-(piperazin-1-yl)pyrimidin-4-ylamino)pyrazine-2-carbonitrile], 1000 to 10000 nM; in that of `COC(C)(C)C#Cc1cnc(Nc2cnc(C#N)cn2)cc1NC[C@@H]1CNCCO1` [Compound Y-155, (S)-5-(5-(3-Methoxy-3-methylbut-1-ynyl)-4-(morpholin-2-ylmethylamino)pyridin-2-ylamino)pyrazine-2-carbonitrile], no more than 100 nM.
With `COc1ccc(-c2cnc(Nc3cnc(C#N)cn3)cc2NC2CCN(C)CC2)cc1` [Compound Y-114, 5-(5-(4-methoxyphenyl)-4-(1-methylpiperidin-4-ylamino)pyridin-2-ylamino)pyrazine-2-carbonitrile], the IC50 was no more than 100 nM.
On to `N#Cc1cnc(Nc2cc(NCC3CCCNC3)c(N3CCCC3)cn2)cn1` (stereo not drawn) [Compound Y-059, 5-(4-(Piperidin-3-ylmethylamino)-5-(pyrrolidin-1-yl)pyridin-2-ylamino)pyrazine-2-carbonitrile], for which the IC50 is no more than 100 nM.
As to `NCCCCNc1cc(Nc2cnccn2)ncn1` [Compound Z-006, N-(4-Aminobutyl)-N′-pyrazin-2-ylpyrimidine-4,6-diamine], the IC50 was 1000 to 10000 nM.
Compound `Cc1ccccc1-c1cnc(Nc2cnc(C#N)cn2)cc1NC1CCN(C)CC1` [Compound Y-121, 5-(4-(1-Methylpiperidin-4-ylamino)-5-o-tolylpyridin-2-ylamino)pyrazine-2-carbonitrile] displayed an IC50 of 100 to 1000 nM.
In the case of `CN1CCC(Nc2cc(Nc3cnc(C#N)cn3)ncc2-n2cccc2)CC1` [Compound Y-058, 5-(4-(1-Methylpiperidin-4-ylamino)-5-(1H-pyrrol-1-yl)pyridin-2-ylamino)pyrazine-2-carbonitrile] it was no more than 100 nM; in that of `COC(=O)c1cnc(Nc2cnc(C#N)cn2)cc1NC1CCCNCC1` (stereo not drawn) [Compound Y-076, Methyl 4-(azepan-4-ylamino)-6-(5-cyanopyrazin-2-ylamino)nicotinate], no more than 100 nM; in that of `N#Cc1cnc(Nc2cc(NCC3CCCNC3)c(-n3ccc(C(=O)O)c3)cn2)cn1` (stereo not drawn) [Compound Y-065, 1-(6-(5-Cyanopyrazin-2-ylamino)-4-(piperidin-3-ylmethylamino)pyridin-3-yl)-1H-pyrrole-3-carboxylic acid], 100 to 1000 nM.
The value for `N#Cc1cnc(Nc2cc(NCC3CCNCC3)c(C(=O)Nc3ccc(F)cc3)cn2)cn1` [Compound Y-092, 6-(5-Cyanopyrazin-2-ylamino)-N-(4-fluorophenyl)-4-(piperidin-4-ylmethylamino)nicotinamide] was 100 to 1000 nM; that for `CN1CCC(Nc2cc(Nc3cnc(C#N)cn3)ncc2-c2ccccc2)CC1` [Compound Y-111, 5-(4-(1-Methylpiperidin-4-ylamino)-5-phenylpyridin-2-ylamino)pyrazine-2-carbonitrile] was no more than 100 nM; that for `N#Cc1cnc(Nc2cc(NCCC[C@H](N)C(=O)NCc3ccccc3)ncn2)cn1` [Compound Z-011, (S)-2-Amino-N-benzyl-5-(6-(5-cyanopyrazin-2-ylamino)pyrimidin-4-ylamino)pentanamide] was ≤ 1000 nM and 100 to 1000 nM.
Regarding `N#Cc1cnc(Nc2cc(N[C@H]3CC[C@H](O)CC3)ncn2)cn1` [Compound Z-038, 5-(6-((1r,4r)-4-Hydroxycyclohexylamino)pyrimidin-4-ylamino)pyrazine-2-carbonitrile], the IC50 was in the range of 1000 to 10000 nM.
The value for `CN(C)CC(=O)Nc1cnc(Nc2cnc(C#N)cn2)cc1OCC1CCNCC1` [Compound Y-039, N-(6-(5-Cyanopyrazin-2-ylamino)-4-(piperidin-4-ylmethoxy)pyridin-3-yl)-2-(dimethylamino)acetamide] was 1000 to 10000 nM; that for `COC(=O)c1cnc(Nc2cnc(C#N)cn2)cc1NC1C[C@H]2CC[C@@H](C1)N2Cc1ccccc1` (stereo partly drawn) [Compound Y-029, Methyl 4-((1R,3s,5S)-8-benzyl-8-azabicyclo[3.2.1]octan-3-ylamino)-6-(5-cyanopyrazin-2-ylamino)nicotinate] was no more than 100 nM.
